The test system of data set [1] is progerin. Kind of data set: Progerin expression by western blot, normalised to total protein (Revert protein stain). In kind it is cell-based, human. The conditions noted are these: T=72 hours, mean of n=3 unless footnoted; for Mean decrease of progerin expression relative to DMSO control: compounds tested at CV25, HGPS cells; for Mean change of progerin expression relative to DMSO control: compounds tested at CV75, HGPS cells, decrease (−) or increase. The protocol:
All molecules were diluted in DMSO at 10 mM. […] Drug efficiency was evaluated in 6-well plates.
Total fibroblast proteins were extracted after 72 hours treatment in 100 μL of NP40 (Invitrogen) with 1× protease and phosphatase inhibitor cocktail (Life Technologies). Lysats were incubated on ice for 30 minutes, with vortexing at 10-minute intervals. Finally, they were sonicated four times (20 sec each) and then centrifuged at 13000 rpm for 10 minutes at 4° C.
Protein concentrations were determined with the BCA™ Protein Assay (Life Technologies).
Protein lysates were separated on Nupage Novex 4-12% Bis-Tris Midi precast gels (Life Technologies) and transferred to Immobilon-FL PVDF membranes (Millipore, Molsheim, France). Membranes were blocked for one hour in 1:1 diluted blocking buffer for near infrared fluorescent western blotting (Rockland, Le Perray, France). Blocked membranes were incubated with primary antibodies overnight at 4° C., following which they were washed and incubated with IR-Dye conjugated secondary antibodies for one hour at RT. Bound antibodies were detected and analyzed on an Odyssey imaging system (Li-COR Biosciences, Bad Homburg, Germany) according to the manufacturer's instructions. Revert Protein Stain (Li-COR Biosciences) was used as a total protein loading control in addition to two traditional protein loading control GAPDH and Actin. Progerin and SRSF1 levels were quantified and normalized by Revert staining using Image Studio Lite™ software developed by Li-COR.
The following antibodies were used in this study: rabbit monoclonal anti-lamin A/C (ab108922, 1/1000, Abcam, Amsterdam, Netherlands), rabbit monoclonal anti-SRSF1 (SF2) (ab129108, 1/1000, Abcam), mouse monoclonal anti-GAPDH (MAB374, 1/40000, Millipore, Molsheim, France) and mouse monoclonal anti-actin (MAB1501R, 1/10000, Millipore. Secondary antibodies conjugated with IR-Dye 800CW or 680 were used according to the manufacturer's instructions (926-32213 and 926-68072, 1/5000, Li-COR Biosciences).
Mean decrease of progerin expression (presented as a percentage of the concentration measured in DMSO control) with compounds tested at CV25, in HGPS cells at T=72 hours, determined by western blot analysis and normalised to the total amount of protein (Revert protein stain) (mean of n=3 (range)) is presented in the following Table 1:
Mean change (decrease (−) or increase) of progerin expression (presented as a percentage of the concentration measured in DMSO control) with compounds tested at CV75, in HGPS cells at T=72 hours, determined by western blot analysis and normalised to the total amount of protein (Revert protein stain) (mean of n=3 (range)) is presented in the following Table 2: […]

For data set [2], the system named is HGPS fibroblast. The conditions noted are these: human, 72 h.
Experimental: (§1) Fibroblasts from HGPS donors from passage 18 to 24 were cultured in DMEM low glucose (Life Technologies, Courtabœuf, France) containing 15% FBS (Life Technologies), 2 mM L-glutamine (Life Technologies) and 100 U/mL penicillin-streptomycin (Life Technologies) at 37° C. in a humidified atmosphere containing 5% CO2.
(§2) All molecules were diluted in DMSO at 10 mM. Concentrations from 100 μM to 0.0001 nM were used to test cell viability in 96-well plates. Drug efficiency was evaluated in 6-well plates.
(§3) Assays were carried out in 96-well microplates. After 72 hours of treatment, the cells were washed once with 100 μL DPBS (no calcium, no magnesium). Then 100 μl of PrestoBlue solution (Life Technologies) diluted at 10% in DPBS was added to each well. Plates were incubated at 37° C. for 30 minutes. The fluorescence intensity was measured by multiwell plate reader (Glomax microplate reader, Promega, Charbonnières les Bains, France) using green filter (Excitation 525 nm/emission 580-640 nm). Fluorescence intensities values were pasted in Prism Software (Graph Pad, San Diego, CA) to perform a dose response analysis. CV25 correspond to drug concentrations at which HGPS fibroblast cell viability was 25%. CV75 correspond to drug concentrations at which HGPS fibroblast cell viability was 75%.
Data set [3] relates to HGPS fibroblast. Kind of data set: Cell viability and assessment of toxicity (PrestoBlue, dose response). To be noted: 72 hours of treatment.
Experimental: as §1, §2, §3

The structures appear in SMILES notation. Read-outs that look alike come from different tables or passages of the source. Marks after values point to notes of the source that are not given here. Where a SMILES comes first, the peptide text is derived from it. The star is where a group is joined. Cbz = O=C(OCc1ccccc1)*

As for `CC(C)C[C@@H](C=O)NC(=O)[C@H](CC(C)C)NC(=O)[C@H](CC(C)C)NC(=O)c1cc(Cl)ccc1Cl` [Compound 12], in data set [1], the “Mean decrease of progerin expression relative to DMSO control” value is on record as 61** % and the “Mean change of progerin expression relative to DMSO control” value was −1** %. In data set [2], this compound came in with a CV25 of 0.063 µM and a CV75 of 0.001 µM.

For the compound `CC(C)C[C@@H](C=O)NC(=O)[C@H](Cc1ccccc1)NC(=O)[C@H](CC(C)C)NC(=O)OCc1ccccc1` [Compound 6, Z-Leucine-Phenylalanine-Leucinal] (Cbz-Leu-Phe-Leu-aldehyde), in data set [1], the “Mean decrease of progerin expression relative to DMSO control” value was found to be 69% and the “Mean change of progerin expression relative to DMSO control” value is 6%. In data set [2], this compound showed a CV25 of 0.142 µM and a CV75 of 0.060 µM.

With `CC(C)C[C@@H](C=O)NC(=O)[C@H](CC(C)C)NC(=O)[C@H](CC(C)C)NC(=O)c1cnccn1` [Compound 7], in data set [1], the “Mean decrease of progerin expression relative to DMSO control” value amounted to 79% and the “Mean change of progerin expression relative to DMSO control” value was −36%. In data set [2], this compound registered a CV25 of 5.5 µM and a CV75 of 2.1 µM.

Turning to `CC(C)C[C@@H](C=O)NC(=O)[C@H](CC(C)C)NC(=O)[C@H](CC(C)C)NC(=O)OCc1ccccc1` [Compound 1, Z-Leu-Leu-Leucinal, reference compound] (Cbz-Leu-Leu-Leu-aldehyde), in data set [1], the “Mean decrease of progerin expression relative to DMSO control” value is listed as 67* % and the “Mean change of progerin expression relative to DMSO control” value was −3* %. In data set [3] (drug concentration at which HGPS fibroblast cell viability was 25%), this compound gave a CV25 of 0.270 µM. The compound further yielded a CV75 in data set [3] (drug concentration at which HGPS fibroblast cell viability was 75%) of 0.137 µM.

Turning to `CC(C)C[C@H](NC(=O)OCc1ccccc1)C(=O)N[C@@H](CC(C)C)C(=O)N[C@H](C(=O)N[C@H](C=O)Cc1ccc(O)cc1)C(C)C` [Compound 13] (Cbz-LLVY-aldehyde), in data set [1], the “Mean decrease of progerin expression relative to DMSO control” value is given as 68*** % and the “Mean change of progerin expression relative to DMSO control” value was −29*** %. In addition, in data set [2], the CV25 is 0.020 µM and the CV75 came out at 0.007 µM.

Take `CC(C)C[C@@H](C=O)NC(=O)[C@H](CC(C)C)NC(=O)[C@H](CC(C)C)NC(=O)Cc1ccc(F)cc1F` [Compound 8]: in data set [1], the “Mean decrease of progerin expression relative to DMSO control” value amounted to 47% and the “Mean change of progerin expression relative to DMSO control” value is recorded as −16%. Moreover, in data set [2], the CV25 is 0.152 µM and the CV75 was 0.073 µM.

Consider `CC(=O)N[C@@H](CC(C)C)C(=O)N[C@@H](CC(C)C)C(=O)N[C@H](C=O)CC(C)C` [Compound 3] (Ac-Leu-Leu-Leu-aldehyde), for which, in data set [1], the “Mean decrease of progerin expression relative to DMSO control” value was determined as 71% and the “Mean change of progerin expression relative to DMSO control” value was found to be 0%. Moreover, in data set [2], the CV25 was determined as 1.800 µM and the CV75 is 0.720 µM.

Turning to `CC(C)C[C@@H](/C=N/NC(N)=O)NC(=O)[C@H](CC(C)C)NC(=O)[C@H](CC(C)C)NC(=O)OCc1ccccc1` [Compound 16], in data set [1], the “Mean decrease of progerin expression relative to DMSO control” value came out at 66% and the “Mean change of progerin expression relative to DMSO control” value is listed as 0%. Further, in data set [2], the CV25 is 1.750 µM and the CV75 was 0.195 µM.

On to `CC(C)C[C@@H](C=O)NC(=O)[C@H](CC(C)C)NC(=O)[C@H](Cc1ccccc1)NC(=O)OCc1ccccc1` [Compound 4, Z-Phenylalanine-Leucine-Leucinal] (Cbz-Phe-Leu-Leu-aldehyde), for which, in data set [1], the “Mean decrease of progerin expression relative to DMSO control” value stood at 70% and the “Mean change of progerin expression relative to DMSO control” value is −12%. Also, in data set [2], the CV25 was found to be 0.402 µM and the CV75 is 0.133 µM.

With `CC(C)C[C@@H](C=O)NC(=O)[C@H](CC(C)C)NC(=O)[C@H](CC(C)C)NC(=O)Cc1cccc(CC(=O)N[C@@H](CC(C)C)C(=O)N[C@@H](CC(C)C)C(=O)N[C@H](C=O)CC(C)C)c1` [Compound 14], in data set [1], the “Mean decrease of progerin expression relative to DMSO control” value turned out to be 66% and the “Mean change of progerin expression relative to DMSO control” value is reported as −1%. In data set [2], this compound gave a CV25 of 0.589 µM and a CV75 of 0.155 µM.

The values above are taken from US20240010610A1, “COMPOUNDS FOR TREATING SEGMENTAL PROGEROID SYNDROMES” (Progelife, priority 2020, published 2024).
